Experimental data as given in US20230270810A1, “VETERINARY COMPOSITIONS FOR THE TREATMENT AND/OR PREVENTION OF PROTOZOAN DISEASES AND METHODS OF PREPARATION THEREOF” (ADIFEED SP. Z O. O., priority 2020, published 2023).

Legend:
[1] = system: Gregarina blattarum; assay: in vitro protozoicidal test, LD50/LD100 within 3 minutes, gregarines isolated from cockroaches; type: cell-based; conditions: in Ringer's solution
Description: For in vitro tests of antiprotozoal activity of the composition five reference organisms representing taxonomic groups to which pathogenic protozoa belong were selected, i.e: • Amoeba proteus—Chaos diffluens—a protozoan of the order Euamoebida, belonging to fifth supergroup of the Amoebozoa, living in waters. • Paramecium caudatum—a slipper animalcule representing the Ciliata orachs, living in waters. • Gregarina blattarum—gregarine isolated from cockroaches, representing the phylum Apicomplexa, living in the digestive tracts or body cavities of invertebrates. • Euglena gracilis—a protozoan living in water, representing the flagellates—Mastigophora, family Euglenaceae. • Trichomonas hominis—a protozoan living in the human colon, representing the Trichomonadidae.
The gregarines were isolated from the cockroaches and, after being placed on a watch slide, were treated with the products at different concentrations in Ringer's solution. Each sample contained ten individuals. […]
The mixture was heated at the boiling point, until the colour changed, under reflux for 20 minutes. […] Compositions I and II were then analysed for their antiprotozoal properties. […]
Individual acids, catalyst solution, essential oil and metal salt solutions were additionally analysed for protozoal properties. […] Observation under a fluorescence microscope with phase contrast was carried out.

[2] = system: Trichomonas hominis; assay: in vitro protozoicidal test, LD50/LD100 within 3 minutes; type: cell-based
[3] = system: Amoeba proteus; assay: as above; type: cell-based
[4] = system: Trypanosoma cruzi and Leishmania chagasi; conditions: cited from earlier work
[5] = system: Trypanosoma cruzi; conditions: read-out: inhibitory effect on 50% of the population (IC50); cited from earlier work
[6] = system: Trypanosoma cruzi and different Leishmania species; conditions: cited from earlier work
[7] = death of 50% of individuals within 3 minutes
[8] = death of 100% of individuals within 3 minutes

Compound: Cc1ncc([N+](=O)[O-])n1CCO [M, metronidazole]
- LD50 ([1]; 50% of individuals within 3 minutes): 0.13%
- LD100 ([1]; 100% of individuals within 3 minutes): 0.3%
- LD50 [2, 7]: 0.05%
- LD100 [2, 8]: 0.1%
- LD50 [3, 7]: 0.3%
- LD100 [3, 8]: 0.5%

Compound: CC1CS(=O)(=O)CCN1/N=C/c1ccc([N+](=O)[O-])o1 (stereo not drawn) [Nifurtimox]
- IC50 [4]: 0.3 to 0.4 µg/mL
- IC50 [5]: 6 µM

Compound: O=C(Cn1ccnc1[N+](=O)[O-])NCc1ccccc1 [benznidazole]
- values obtained (in vitro antiprotozoal activity) [6]: 45.02 µg/mL
